Columns and labels:
Assay type in all cases: functional
[1] = molecular target: Metabotropic glutamate receptor 2 (Homo sapiens) (UniProt Q14416); test: Binding potency against Metabotropic glutamate receptor 2 was determined by measuring the concentration required to activate 50% of [35S]GTP-gamma-S, in presence of 10 uM glutamate
[2] = molecular target: Metabotropic glutamate receptor 2 (Homo sapiens) (UniProt Q14416); test: Level of potentiation of Metabotropic glutamate receptor 2 was determined by measuring the percentage activation of [35S]GTP-gamma-S, in the presence of 10 uM glutamate
[3] = molecular target: Metabotropic glutamate receptor 3 (Homo sapiens) (UniProt Q14832); test: Binding potency against Metabotropic glutamate receptor 3 was determined by measuring the concentration required to activate 50% of [35S]GTP-gamma-S, in presence of glutamate; inactive
Metabotropic glutamate receptor 3 (Homo sapiens), sequence (Q14832 23-879 limits assumed): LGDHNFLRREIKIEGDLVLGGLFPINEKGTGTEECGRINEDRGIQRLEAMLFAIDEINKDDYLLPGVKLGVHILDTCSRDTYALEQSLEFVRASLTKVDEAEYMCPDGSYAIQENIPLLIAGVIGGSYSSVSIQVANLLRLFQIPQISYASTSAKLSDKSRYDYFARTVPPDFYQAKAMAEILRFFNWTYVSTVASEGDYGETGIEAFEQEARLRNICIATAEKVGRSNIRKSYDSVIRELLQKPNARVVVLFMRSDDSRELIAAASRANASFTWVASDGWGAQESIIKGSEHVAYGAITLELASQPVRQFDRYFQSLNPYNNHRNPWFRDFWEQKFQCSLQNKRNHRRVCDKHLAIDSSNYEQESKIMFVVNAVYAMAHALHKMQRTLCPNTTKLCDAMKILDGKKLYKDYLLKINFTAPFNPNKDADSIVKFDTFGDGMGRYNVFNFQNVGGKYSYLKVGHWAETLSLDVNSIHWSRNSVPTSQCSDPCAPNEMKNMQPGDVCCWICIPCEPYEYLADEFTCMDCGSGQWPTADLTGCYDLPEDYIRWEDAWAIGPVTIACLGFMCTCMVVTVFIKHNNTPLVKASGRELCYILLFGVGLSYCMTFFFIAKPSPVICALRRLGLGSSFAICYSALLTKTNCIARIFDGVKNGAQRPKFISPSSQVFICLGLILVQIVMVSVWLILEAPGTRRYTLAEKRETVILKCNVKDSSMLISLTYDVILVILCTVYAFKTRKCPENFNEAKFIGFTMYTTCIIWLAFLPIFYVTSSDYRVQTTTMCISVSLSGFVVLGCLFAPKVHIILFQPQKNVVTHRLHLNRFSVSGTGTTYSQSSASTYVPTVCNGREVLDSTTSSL

Metabotropic glutamate receptor 2 (Homo sapiens), sequence (Q14416 19-872 limits assumed): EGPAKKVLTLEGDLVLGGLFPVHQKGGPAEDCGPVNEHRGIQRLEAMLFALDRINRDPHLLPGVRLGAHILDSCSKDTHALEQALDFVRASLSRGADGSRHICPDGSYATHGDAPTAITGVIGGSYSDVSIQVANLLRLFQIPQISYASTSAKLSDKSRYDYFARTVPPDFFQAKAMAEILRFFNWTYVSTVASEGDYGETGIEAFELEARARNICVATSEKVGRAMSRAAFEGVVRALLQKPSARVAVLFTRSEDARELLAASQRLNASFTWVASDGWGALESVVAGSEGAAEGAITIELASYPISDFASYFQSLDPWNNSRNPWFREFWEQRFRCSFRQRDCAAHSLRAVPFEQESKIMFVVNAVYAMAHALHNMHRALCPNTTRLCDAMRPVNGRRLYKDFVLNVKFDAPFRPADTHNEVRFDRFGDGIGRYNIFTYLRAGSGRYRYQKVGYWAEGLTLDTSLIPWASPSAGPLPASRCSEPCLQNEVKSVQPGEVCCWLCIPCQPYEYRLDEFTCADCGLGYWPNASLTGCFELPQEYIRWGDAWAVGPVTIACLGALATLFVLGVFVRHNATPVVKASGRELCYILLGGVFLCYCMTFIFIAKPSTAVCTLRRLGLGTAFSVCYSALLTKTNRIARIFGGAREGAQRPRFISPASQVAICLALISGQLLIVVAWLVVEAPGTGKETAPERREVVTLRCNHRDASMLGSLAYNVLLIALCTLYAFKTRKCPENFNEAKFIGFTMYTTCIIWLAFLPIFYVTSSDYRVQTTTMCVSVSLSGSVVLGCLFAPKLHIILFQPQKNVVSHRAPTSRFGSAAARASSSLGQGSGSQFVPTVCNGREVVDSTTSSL

ED50 [1] [nM]	Potentiation [2] [%]	Concentration [3] [µM]	Compound
710	31	–	c1ccc(Cc2cccc(NCc3cncnc3)c2)cc1
1700	52	–	COc1ccccc1Oc1ccc(N(Cc2cccnc2)S(=O)(=O)CC(F)(F)F)cc1
9600	68	–	c1ccc(NCc2cncnc2)cc1
5200	40	–	FC(F)(F)Oc1cccc(NCc2cnc3ccccc3c2)c1
760	62	–	COc1ccccc1Oc1cccc(N(Cc2cncnc2)S(=O)(=O)CC(F)(F)F)c1
630	53	–	Cc1ccccc1Oc1cccc(N(Cc2cncnc2)S(=O)(=O)CC(F)(F)F)c1
1000	18	–	FC(F)(F)c1ccccc1Cc1cccc(NCc2cnc3ccccc3c2)c1
350	31	10	CCCC(C)Oc1cccc(N(Cc2cncnc2)S(=O)(=O)CC(F)(F)F)c1 (stereo unspecified)
860	46	–	O=S(=O)(CC(F)(F)F)N(Cc1cncnc1)c1cccc(Oc2ccccc2F)c1
660	52	–	O=S(=O)(CC(F)(F)F)N(Cc1cncnc1)c1cccc(Oc2ccccc2)c1
19000	26	–	FC(F)(F)Oc1cccc(NCc2cncnc2)c1
840	60	–	O=S(=O)(CC(F)(F)F)N(Cc1cncnc1)c1cccc(OC2CCCC2)c1
1200	51	–	O=S(=O)(CC(F)(F)F)N(Cc1cncnc1)c1cccc(COc2ccccc2)c1
4300	41	–	CCCC(C)Oc1cccc(NCc2cnc3ccccc3c2)c1 (stereo unspecified)
660	48	–	CC(C)(C)[Si](C)(C)OCc1cccc(N(Cc2cncnc2)S(=O)(=O)CC(F)(F)F)c1
560	37	–	O=S(=O)(CC(F)(F)F)N(Cc1cncnc1)c1ccc(Oc2ccccc2)cc1
970	73	–	O=S(=O)(CC(F)(F)F)N(Cc1cncnc1)c1cccc(Oc2ccccc2C(F)(F)F)c1
1100	40	–	O=S(=O)(CC(F)(F)F)N(Cc1cncnc1)c1cccc(Oc2ccccc2Br)c1
540	43	–	O=S(=O)(CC(F)(F)F)N(Cc1cncnc1)c1cccc(Cc2ccccc2)c1
810	39	–	O=C(OCc1cccc(N(Cc2cncnc2)S(=O)(=O)CC(F)(F)F)c1)c1ccccc1

From ChEMBL document CHEMBL1137892, “Pyrimidine methyl anilines: selective potentiators for the metabotropic glutamate 2 receptor” (Bioorg Med Chem Lett, 2004)
